Values belong to the compound of their own block, whether it stands above or below them.
Assays:
Cathepsin B = Cathepsin B (Rattus norvegicus, UniProt P00787); assay: Inhibition of Cathepsin B, enzyme assay and kinetic measurements; type: biochemical; conditions: for kinact/KI: approximates kon, read-out: kabs /[inh] (cathepsin B); for inhibition at 200 µM: 200 μM [inhibitor]
Text: (§1) Inhibition of Cathepsin B, Cathepsin L and Papain by 1,2,4-thiadiazoles and 1,2,4-thiadiazole[4,5-a]benzimidazole derivatives: Enzyme Assays and Kinetic Measurements
(§2) Conditions for the above experiments can be found in the following references: Menard R. et al., Biochemistry 1990, 29, 6706-6713; Fox T. et al., Biochemistry 1992, 31, 12571-12576; Cannona E. et al., Biochemistry 1996, 35, 8149-8157. A typical experiment consisted of choosing an inhibitor concentration such that maximum inhibition could be achieved in less than two hours, monitoring the complete progress curve (i.e. fluorescence vs time), and analyzing the data. The analysis yield two parameters: the % inhibition once steady state was re ached, and a rate constant which represents the rate at which this steady state is reached. Typically, the enzyme activity decreases with time until the maximum level of inhibition is reached (i.e. steady state) where the enzyme activity remains constant. Since significant levels of activity could still be detected at steady state (i.e. inhibition is not complete), the data was fitted to equation (1), which is normally used for slow-binding reversible inhibitors. [formula]
(§3) % inhibition=(1-v1 /vo).100 (2)
(§4) In this equation, [P] represents the concentration of product (obtained from the flourescene readings), kabs is the first order rate constant to reach steady state, vo is the initial rate which corresponds to the rate in the absence of the inhibitor, and vi is the rate of the inhibited enzyme at steady state. The % inhibition was obtained by using equation (2), where the rate measured in the absence of the inhibitor was used for vo. An example of a simple mechanism for such a process is given below: [formula] For this mechanism, the value of kabs determined experimentally would correspond to:
(§5) The value of kabs varies with inhibitor concentration. Often koff is much slower than kon [inh] and kabs /[inh] can be used to approximate kon. This approach is used in this study and the results are shown in below: […]

Cathepsin L = Cathepsin L (Homo sapiens, UniProt P07711); assay: Inhibition of Cathepsin L, enzyme assay and kinetic measurements; type: biochemical; conditions: for kinact/KI: approximates kon, read-out: kabs /[inh] (cathepsin L); for inhibition at 5 µM: 5 μM [inhibitor]
Text: as §1, §2, §3, §4, §5

Papain = target: T1, Papain (Carica papaya, UniProt P00784); assay: Inhibition of Papain, enzyme assay and kinetic measurements; type: biochemical; conditions: for kinact/KI: approximates kon, read-out: kabs /[inh] (papain); for inhibition at 200 µM: 200 μM [inhibitor] (printed 200 μm); for inhibition at 1 µM: 1 μM [inhibitor]
T1 sequence (P00784 134-345): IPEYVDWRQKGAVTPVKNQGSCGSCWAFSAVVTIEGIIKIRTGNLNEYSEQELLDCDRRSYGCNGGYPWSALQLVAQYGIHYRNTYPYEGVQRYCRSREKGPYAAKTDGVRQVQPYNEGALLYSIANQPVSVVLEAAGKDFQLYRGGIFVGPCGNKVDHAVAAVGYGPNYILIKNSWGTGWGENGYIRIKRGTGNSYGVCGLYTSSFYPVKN
Text: as §1, §2, §3, §4, §5

hog H^+ /K^+ ATPase = target: T2, hog H^+ /K^+ ATPase (Sus scrofa, UniProt P19156); assay: Gastric ATPase enzyme inhibition assay; type: biochemical; conditions: hog gastric vesicles, K+ stimulated ATP hydrolysis
T2 construct: Potassium stimulated ATP hydrolysis using hog gastric (GI) vesicles; from tissue; host or cells: hog gastric (GI) vesicles
Method: Gastric ATPase enzyme inhibition assay
The enzyme used is the hog H^+ /K^+ ATPase (Sachs, et al. J. Biol. Chem. 251:7690-7698, 1976). A modified procedure reported by Yoda A. and Hokin, L.E., Biochem. Res. Commun., 1970, 800-884 is used. Potassium stimulated ATP hydrolysis using hog gastric (GI) vesicles, a preparation enriched in H^+ /K^+ ATPase, is measured.
The difference between activity in the presence of Mg^++ and presence of Mg^++ and K^+ 0 is taken as enzyme activity. Nigericin, a K^+ ionophore, is also present in the (+)K^+ incubation mixture to provide access of K^+ to the vesicle interior. Hydrolysis activity is measured by quantitative analysis of a phosphomolybdate complex. […] The optical density of many drugs used for the inhibition of H^+ /K^+ ATPase interfere in this wavelength. Therefore, a modification of the as say was used wherein the phosphomolybdate complex was reduced with Fiske and Subbarow reducer (1-amino-2-naphthol-4-[…] plus sodium sulfite). This shifts the optical density from 3 20 nm for the oxidized phosphomolybdate complex to 600-700 nm. This modification has the added advantage of providing a means of automated assay when multiple samples being tested. In this modification, the optical density of the assay mixtures was read at 700 nm.
Basal Mg^++ levels are measured in […], 2 mM Na2 ATP, 40 mM Pipes-tris, pH 6.10. 20 mM KCl and 10 μg/ml nigericin is added to determine the extent of stimulation by K^+. Test compounds or vehicle are then added. Enzyme (10 μg/ml) is then added to initiate the reaction. The final volume is 200 μl. The protocol for these assays is shown below.
Zero blanks (water controls) and phosphate standards (200 μl) are added appropriate for assays used: […], 0.050, 0.075, 0.1 . . . 0.5 mM standards. The order of the addition of reagents generally follows as described above. However, it may be more preferable to add either enzyme before ATP if it is important to provide time for pre-cubation with test compounds. Time additions of the last reagent are used to provide a uniform assay time.
The reaction is run for 30 min. to 1 hour. The re action is stopped by addition of 50 μl of a solution prepared by adding 4 volumes of 2.5 M sulfric acid plus one volume of 1.25% (w/v) Fiske and Subbarow reagent. Colour is developed at room temperature for ten minutes and optical density at 700 nm is determined. In the event that a white precipitate forms, the clear supernatants (after mixing and setting) can be used for the determination of enzyme activity.

[1] = Reaction with benzyl mercaptan; type: physicochemical; conditions: organic solvent such as methanol
Text: The chemical reactivity of monocyclic 1,2,4-thiadiazole as thiol trapping agent depends on the substituent at the 3 and 5 position of the ring system.

[2] = Acid stability in 6 molar hydrochloric acid; type: physicochemical; conditions: room temperature
Method: Acid stability of 7-methoxy-3-[(4-methoxy-3,5-dimethyl-2-pyridyl)oxomethyl]-1,2,4-thiadiazolo[4,5-a]benzimidazole.
To examine acid stability of the captioned compound, the compound was dissolved in a minimum volume of methanol and the resulting solution was added to a 6 molar solution of hydrochloric acid.

[3] = steady state, 200 μM [inhibitor] (printed 200 μm)
[4] = steady state, 50 μM [inhibitor]

Cathepsin B, sequence (P00787 80-339): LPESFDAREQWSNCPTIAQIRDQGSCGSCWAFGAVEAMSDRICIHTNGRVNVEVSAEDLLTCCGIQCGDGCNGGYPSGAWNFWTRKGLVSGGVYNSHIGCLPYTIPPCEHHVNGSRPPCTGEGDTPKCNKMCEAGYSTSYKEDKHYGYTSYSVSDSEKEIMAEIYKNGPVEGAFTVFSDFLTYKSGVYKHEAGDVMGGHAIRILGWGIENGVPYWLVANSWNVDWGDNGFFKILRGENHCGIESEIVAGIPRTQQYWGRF
Cathepsin L, sequence (P07711 114-333): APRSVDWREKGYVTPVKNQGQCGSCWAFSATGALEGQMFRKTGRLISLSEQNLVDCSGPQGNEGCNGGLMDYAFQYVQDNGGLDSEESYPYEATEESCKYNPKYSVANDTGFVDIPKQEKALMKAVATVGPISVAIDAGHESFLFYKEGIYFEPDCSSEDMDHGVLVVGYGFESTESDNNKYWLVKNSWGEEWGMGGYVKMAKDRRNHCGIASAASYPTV
T2 sequence (P19156 2-1034 limits assumed): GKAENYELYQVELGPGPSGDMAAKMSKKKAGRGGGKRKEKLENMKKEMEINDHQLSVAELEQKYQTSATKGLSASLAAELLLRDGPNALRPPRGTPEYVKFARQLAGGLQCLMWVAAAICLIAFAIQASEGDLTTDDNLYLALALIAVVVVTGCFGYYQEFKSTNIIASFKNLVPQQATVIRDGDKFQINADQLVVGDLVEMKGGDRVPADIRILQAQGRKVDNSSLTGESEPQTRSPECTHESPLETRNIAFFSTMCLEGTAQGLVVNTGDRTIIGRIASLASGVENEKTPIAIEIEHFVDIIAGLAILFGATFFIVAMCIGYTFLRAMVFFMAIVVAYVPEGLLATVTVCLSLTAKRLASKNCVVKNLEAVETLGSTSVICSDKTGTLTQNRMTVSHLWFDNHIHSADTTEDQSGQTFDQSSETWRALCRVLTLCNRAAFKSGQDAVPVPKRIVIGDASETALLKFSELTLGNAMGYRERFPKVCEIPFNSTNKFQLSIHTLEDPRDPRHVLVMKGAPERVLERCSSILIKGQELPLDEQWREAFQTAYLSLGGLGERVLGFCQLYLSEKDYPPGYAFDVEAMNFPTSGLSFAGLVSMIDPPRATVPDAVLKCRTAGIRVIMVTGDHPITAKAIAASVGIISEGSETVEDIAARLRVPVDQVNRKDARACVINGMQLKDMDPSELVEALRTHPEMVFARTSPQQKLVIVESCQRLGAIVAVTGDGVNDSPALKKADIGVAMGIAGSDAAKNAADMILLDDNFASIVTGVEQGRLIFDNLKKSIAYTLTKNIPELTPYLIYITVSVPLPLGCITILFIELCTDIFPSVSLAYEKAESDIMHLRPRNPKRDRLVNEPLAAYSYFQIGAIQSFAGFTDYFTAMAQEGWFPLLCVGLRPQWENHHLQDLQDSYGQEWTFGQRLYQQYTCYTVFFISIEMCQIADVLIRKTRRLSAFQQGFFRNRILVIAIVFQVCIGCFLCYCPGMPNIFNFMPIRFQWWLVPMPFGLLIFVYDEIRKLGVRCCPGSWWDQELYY
T2 sequence (P18434 whole entry partner): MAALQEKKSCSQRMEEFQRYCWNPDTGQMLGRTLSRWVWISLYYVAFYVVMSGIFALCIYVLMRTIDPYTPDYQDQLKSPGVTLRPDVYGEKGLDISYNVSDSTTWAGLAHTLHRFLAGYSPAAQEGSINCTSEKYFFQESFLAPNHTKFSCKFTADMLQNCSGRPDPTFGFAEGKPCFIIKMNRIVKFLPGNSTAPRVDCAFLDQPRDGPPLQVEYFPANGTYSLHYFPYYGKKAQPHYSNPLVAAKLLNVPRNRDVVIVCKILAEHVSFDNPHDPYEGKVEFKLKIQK

Structure (SMILES): c1ccc2c(c1)nc1snc(CN3CCOCC3)n12 [3-(morpholinomethyl)-1,2,4-thiadiazolo[4,5-a]benzimidazole]
kinact/KI (Cathepsin B): 8 M⁻¹ s⁻¹ | inhibition at 200 µM (Cathepsin B; steady state): 60% | kinact/KI (Cathepsin L): 7 M⁻¹ s⁻¹ | inhibition at 200 µM (Cathepsin L; steady state, 200 μM [inhibitor], % sign not given): 80% | kinact/KI (Papain): 7 M⁻¹ s⁻¹ | inhibition at 200 µM (Papain; steady state): 92% | EC50 (hog H^+ /K^+ ATPase): 200 nM

Structure (SMILES): Cc1nsc(N(Cc2ccccc2)Cc2ccccc2)n1 [3-methyl-5-dibenzylamino-1,2,4-thiadiazole]
reaction with benzyl mercaptan [1]: do not react with benzyl mercaptan

Structure (SMILES): O=C(c1ccccn1)c1nsc2nc3ccccc3n12 [3-[oxo(2-pyridyl)methyl]-1,2,4-thiadiazolo [4,5-a]benzimidazole]
kinact/KI (Cathepsin B): 15 M⁻¹ s⁻¹ | inhibition at 200 µM (Cathepsin B; steady state): 58% | kinact/KI (Cathepsin L): 68 M⁻¹ s⁻¹ | inhibition at 200 µM (Cathepsin L; [3]): 99% | kinact/KI (Papain): 2480 M⁻¹ s⁻¹ | inhibition at 1 µM (Papain; steady state): 79%

Structure (SMILES): c1cncc(-c2nsc(-c3cccnc3)n2)c1 [3,5-di(3-pyridyl)-1,2,4-thiadiazole]
reaction with benzyl mercaptan [1]: do not react with benzyl mercaptan

Structure (SMILES): c1ccc2c(c1)nc1snc(OCCN3CCOCC3)n12 [3-[2-(N-morpholino)ethoxy]-1,2,4-thiadiazolo[4,5-a]benzimidazole]
kinact/KI (Cathepsin B): 107 M⁻¹ s⁻¹ | inhibition at 50 µM (Cathepsin B; [4]): 91% | kinact/KI (Cathepsin L): 356 M⁻¹ s⁻¹ | inhibition at 25 µM (Cathepsin L; steady state, 25 μM [inhibitor]): 99% | kinact/KI (Papain): 5560 M⁻¹ s⁻¹ | inhibition at 0.66 µM (Papain; steady state, 0.66 μM [inhibitor]): 99.6%

Structure (SMILES): CC(C)CCNC(=O)[C@H](CC(C)C)NC(=O)c1nsc2nc3ccccc3n12 [{1,2,4-thiadiazolo[4,5-a]benzimidazol-3-yl}-carbonyl-L-leucyl isoamylamide]
kinact/KI (Cathepsin L): 307 M⁻¹ s⁻¹ | inhibition at 5 µM (Cathepsin L; steady state): 93% | kinact/KI (Papain): 500 M⁻¹ s⁻¹ | inhibition at 5 µM (Papain; steady state, 5 μM [inhibitor]): 95%

Structure (SMILES): CN1CCN(c2nsc3nc4ccccc4n23)CC1 [3-(4-methyl-1-piperazinyl)-1,2,4-thiadiazolo-[4,5-a]benzimidazole]
kinact/KI (Cathepsin B): 19 M⁻¹ s⁻¹ | inhibition at 200 µM (Cathepsin B; steady state): 68% | kinact/KI (Cathepsin L): 24 M⁻¹ s⁻¹ | inhibition at 200 µM (Cathepsin L; [3]): 98% | kinact/KI (Papain): 28 M⁻¹ s⁻¹ | inhibition at 200 µM (Papain; steady state): 99% | EC50 (hog H^+ /K^+ ATPase): 2000 nM

EC50 (hog H^+ /K^+ ATPase): 200 nM
Structure (SMILES): c1ccc2c(c1)nc1snc(NCCN3CCOCC3)n12 [3-[2-(N-morpholino)ethylamino]l,2,4-thiadiazolo-[4,5-a]benzimidazole]

acid stability [2]: complete decomposition in a few minutes
Structure (SMILES): COc1ccc2[nH]c([S+]([O-])Cc3ncc(C)c(OC)c3C)nc2c1 (stereo not shown) [Omeprazole, reference compound]

Structure (SMILES): COc1nsc(NC(=O)N[C@@H](CC(C)C)C(=O)NCCC(C)C)n1 [Example T11AA]
kinact/KI (Cathepsin B): 1060 M⁻¹ s⁻¹ | inhibition at 5 µM (Cathepsin B; steady state, 5 μM [inhibitor]): 56% | kinact/KI (Cathepsin L): 3480 M⁻¹ s⁻¹ | inhibition at 5 µM (Cathepsin L; steady state): 99% | kinact/KI (Papain): 3900 M⁻¹ s⁻¹ | inhibition at 1 µM (Papain; steady state): 97%

Structure (SMILES): COC(=O)[C@@H]1CCCN1c1nsc2nc3ccccc3n12 [1,2,4-thiadiazolo [4,5-a]benzimidazol-3-yl-L-proline methyl ester]
kinact/KI (Cathepsin B): 626 M⁻¹ s⁻¹ | inhibition at 10 µM (Cathepsin B; steady state, 10 μM [inhibitor], % sign not given): 88% | kinact/KI (Cathepsin L): 1050 M⁻¹ s⁻¹ | inhibition at 10 µM (Cathepsin L; steady state, 10 μM [inhibitor]): 99% | kinact/KI (Papain): 356 M⁻¹ s⁻¹ | inhibition at 0.26 µM (Papain; steady state, 0.26 μM [inhibitor]): 97%

EC50 (hog H^+ /K^+ ATPase): 1000 nM
Structure (SMILES): c1ccc2c(c1)nc1snc(N3CCNCC3)n12 [3-(1-piperazinyl)-1,2,4-thiadiazolo[4,5-a]benzimidazole]

Structure (SMILES): O=C(O)c1nsc2nc3ccccc3n12 [sodium 3-carboxylato-1,2,4-thiadiazolo[4,5-albenzimidazole]
kinact/KI (Cathepsin B): 34 M⁻¹ s⁻¹ | inhibition at 200 µM (Cathepsin B; steady state): 85% | kinact/KI (Cathepsin L): 184 M⁻¹ s⁻¹ | inhibition at 50 µM (Cathepsin L; [4]): 98% | kinact/KI (Papain): 131 M⁻¹ s⁻¹ | inhibition at 200 µM (Papain; steady state): 99.6%

Structure (SMILES): Cc1nsc(NCc2ccccc2)n1 [3-methyl-5-benzylamino-1,2,4-thiadiazole]
reaction with benzyl mercaptan [1]: do not react with benzyl mercaptan

Structure (SMILES): COc1nsc(N)n1 [3-methoxy-5-amino-1,2,4-thiadiazoles, 5-amino-3-methoxy-1,2,4-thiadiazole]
reaction with benzyl mercaptan [1]: reacted with benzyl mercaptan

Source: patent publication US6114537A, “Process for scavenging thiols” (Apotex Inc., priority 1997, dated 2000)
